In one data set the test system is iNOS. Kind of data set: Inhibition of LPS-induced iNOS production in RAW264.7 cells (Western blot). In kind it is cell-based, mouse. As to conditions: RAW264.7, 10, 30 or 100 μM, FIG. 8. A general note: Immunoblotting shows a protein as a band on a membrane.
In a further data set the test system is IL-6. Kind of data set: Inhibition of LPS-induced IL-6 production in RAW264.7 cells (ELISA). As to conditions: RAW264.7, 10, 30 or 100 μM, LPS 0.1 μg/ml 6 hours; greater than dexamethasone 1 μM, FIG. 7. Format: cell-based, mouse.
For data set [1], the system named is TNF-alpha. Briefly: Inhibition of LPS-induced TNF-alpha production in RAW264.7 cells (ELISA). In kind it is cell-based, mouse. As to conditions: RAW264.7, 10, 30 or 100 μM, LPS 0.1 μg/ml 6 hours; effect approached dexamethasone 1 μM, FIG. 5. In general terms: An ELISA detects its analyte on a solid surface through an enzyme-linked reagent.
Data set [2] deals with 3T3-L1 adipocytes. Kind of data set: Insulin-stimulated glucose uptake in 3T3-L1 adipocytes. In kind it is cell-based, mouse. The conditions noted are these: 5 μM, 48 hours, different concentrations of insulin, versus vehicle, FIG. 2.
The subject of data set [3] is 3T3-L1 adipocytes. Briefly: Glucose uptake in 3T3-L1 differentiated adipocytes (14C-deoxyglucose). As to conditions: 48 hours with different concentrations, percentage of basal level, FIG. 1. Format: cell-based, mouse.
For another data set, the system named is COX-1. Briefly: COX-1 production in LPS-stimulated RAW264.7 cells (Western blot). Format: cell-based, mouse. As to conditions: LPS-stimulated RAW264.7, 10, 30 or 100 μM, FIG. 8.
Another data set deals with IL-1 beta. Briefly: Inhibition of LPS-induced IL-1 beta production in RAW264.7 cells (ELISA). Format: cell-based, mouse. As to conditions: RAW264.7, 10, 30 or 100 μM, LPS 0.1 μg/ml 6 hours; same approximate magnitude as dexamethasone 1 μM, FIG. 6.
The next data set deals with COX-2. Briefly: Inhibition of LPS-induced COX-2 production in RAW264.7 cells (Western blot). Format: cell-based, mouse. The conditions noted are these: LPS-stimulated RAW264.7, 10, 30 or 100 μM, FIG. 8.
Data set [4] has as its system ob/ob mice. Kind of data set: Lipid-lowering effects in ob/ob mice. In kind it is in vivo, mouse. The conditions noted are these: 10 mg/kg daily oral, day 8, versus vehicle, p<0.05.
Data set [5] relates to ob/ob mice. Kind of data set: Glucose-lowering effect in ob/ob mice. In kind it is in vivo, mouse. The conditions noted are these: 10 mg/kg daily oral, p<0.05.
Data set [6] relates to 3T3-L1 adipocytes. Briefly: Stimulation of glucose uptake in differentiated 3T3-L1 adipocytes with 100 nM insulin. In kind it is cell-based. The conditions noted are these: Mus musculus, 48 h, vehicle set at 100%, read-out: Percent Stimulation of Glucose Uptake.
For another data set, the system named is PDE4. Briefly: Inhibition of PDE4 enzyme activity. In kind it is biochemical, human. The conditions noted are these: for Percent Inhibition of Enzyme Activity, PDE4: PDE4 from human U-937 cells, 1 μM cAMP.
A further data set relates to p44/42 MAP kinase. Briefly: Inhibition of LPS-induced phosphorylation of p44/42 MAP kinase in RAW 264.7 gamma NO(-) cells (Western blot). As to conditions: data not shown. In kind it is cell-based, mouse.
For a further data set, the target named is T1, PDE3 (Homo sapiens, UniProt Q14432).
T1 construct: PDE3 partially purified from human platelets were used; from tissue; host or cells: human platelets
Briefly: Inhibition of PDE3 enzyme activity. As to conditions: PDE3 from human platelets. In kind it is biochemical.

In data set [7] the test system is TNF-alpha. Briefly: Inhibition of LPS-induced TNF-alpha production in mice (plasma ELISA). Format: in vivo, mouse. As to conditions: summary in words of Table 6, 50 or 100 mg/kg oral.
A further data set concerns DBA/1J mice. Kind of data set: Collagen-induced arthritis in mice. Format: in vivo, mouse. The conditions noted are these: for arthritis clinical score (severity) compared with vehicle controls: FIG. 9.
The test system of data set [8] is human elutriated monocytes. Briefly: Cell viability of human monocytes (MTS/PMS assay). As to conditions: 30 μM. Format: cell-based.
Where [9] appears, read: low dose 40 mg/kg oral twice daily for 14 days.

Structures are written as SMILES. A value given as a limit tells only on which side of the number the result lay.

T1 sequence (Q14432 whole entry): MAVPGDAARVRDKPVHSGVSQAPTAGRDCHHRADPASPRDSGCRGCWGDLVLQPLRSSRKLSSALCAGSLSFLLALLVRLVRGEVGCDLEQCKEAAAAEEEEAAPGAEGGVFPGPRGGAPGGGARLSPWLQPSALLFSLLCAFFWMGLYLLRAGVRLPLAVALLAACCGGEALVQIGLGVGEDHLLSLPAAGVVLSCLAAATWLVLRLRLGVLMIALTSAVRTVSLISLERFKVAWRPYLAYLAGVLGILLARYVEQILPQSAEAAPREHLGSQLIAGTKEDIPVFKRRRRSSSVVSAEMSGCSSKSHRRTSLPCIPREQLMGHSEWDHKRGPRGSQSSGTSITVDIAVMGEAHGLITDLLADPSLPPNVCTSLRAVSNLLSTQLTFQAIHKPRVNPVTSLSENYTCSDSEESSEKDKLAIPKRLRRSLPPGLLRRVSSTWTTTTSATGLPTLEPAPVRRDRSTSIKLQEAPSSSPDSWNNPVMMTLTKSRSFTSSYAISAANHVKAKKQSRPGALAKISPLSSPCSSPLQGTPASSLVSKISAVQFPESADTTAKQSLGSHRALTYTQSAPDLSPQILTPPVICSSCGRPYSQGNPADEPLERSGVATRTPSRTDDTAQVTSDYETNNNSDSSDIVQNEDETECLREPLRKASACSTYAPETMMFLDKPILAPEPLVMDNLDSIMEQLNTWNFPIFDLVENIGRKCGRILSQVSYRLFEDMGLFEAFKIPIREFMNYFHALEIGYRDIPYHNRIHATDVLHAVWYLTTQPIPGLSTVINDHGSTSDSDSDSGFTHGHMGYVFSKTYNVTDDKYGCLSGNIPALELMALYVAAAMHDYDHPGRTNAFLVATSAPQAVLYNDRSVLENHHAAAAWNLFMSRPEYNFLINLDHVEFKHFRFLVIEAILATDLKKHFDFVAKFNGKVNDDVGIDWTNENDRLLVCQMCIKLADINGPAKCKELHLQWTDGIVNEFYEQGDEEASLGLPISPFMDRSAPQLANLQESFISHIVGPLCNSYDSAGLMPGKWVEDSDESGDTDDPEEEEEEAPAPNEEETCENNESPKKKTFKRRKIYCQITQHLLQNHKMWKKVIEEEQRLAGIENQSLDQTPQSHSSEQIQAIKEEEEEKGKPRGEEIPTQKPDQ

With `COC(=O)C(=Cc1cc(OC)cc(OC)c1)c1ccc(Oc2ccc(CCC(=O)NC(N)=O)cc2)cc1` [Compound 1, 3-(3,5-dimethoxyphenyl)-2-{4-[4-(3-oxo-3-ureidopropyl)-phenoxy]-phenyl}-acrylyc acid methyl ester], in the data set on iNOS, the “inhibition of LPS-induced iNOS production” value is “dose-dependent inhibition”. Further, the “inhibition of LPS-induced production of IL-6” value in the data set on IL-6 is listed as “significantly inhibited”. Also, the “inhibition of LPS-induced production of TNF-alpha” value in the data set on TNF-alpha [1] is recorded as “significantly inhibited”. Moreover, the “stimulation of glucose uptake by insulin” value in the data set with 3T3-L1 adipocytes [2] is on record as “enhanced”. For the same molecule, in the data set on 3T3-L1 adipocytes [3], the glucose uptake result is “dose-dependent increase”. In addition, the “inhibition of production of COX-1” value in the data set with COX-1 is listed as “but not COX-1”. The “inhibition of LPS-induced production of IL-1 beta” value in the data set with IL-1 beta is “significantly inhibited”. Moreover, the “inhibition of production of COX-2” value with COX-2 is “selectively inhibited”. Also, in the data set on ob/ob mice [4], the “decrease in free fatty acids” value is 19% and the “decrease in serum triglycerides” value stood at 49%. In addition, the “decrease in blood glucose levels” value in the data set on ob/ob mice [5] (day 6, versus vehicle) is recorded as 36%. Also, in the data set on ob/ob mice [5] (day 8, versus vehicle), the “decrease in blood glucose levels” value is listed as 23%.
In the case of `CCOC(=O)NC(=O)CCc1ccc(Oc2ccc(/C(=C\c3cc(OC)cc(OC)c3)C(=O)OC)cc2)cc1` [Compound 8, 3-(3,5-dimethoxyphenyl)-2-{4-[4-(3-ethoxycarbonylamino-3-oxo-propyl)-phenoxy]-phenyl}-acrylic acid methyl ester], in the data set with 3T3-L1 adipocytes [6], the activity at 0.1 µM worked out at 115%, the activity at 1 µM came to 132% and the activity at 10 µM was 171%.
Take `COc1cc(/C=C(/C(=O)N(C)C)c2ccc(Oc3ccc(CCC(=O)NC(N)=O)cc3)cc2)cc(OC)c1` [Compound 13, 3-(3,5-dimethoxyphenyl)-N,N-dimethyl-2-{4-[4-(3-oxo-3-ureido-propyl)-phenoxy]-phenyl}-acrylamide]: the “Percent Inhibition of Enzyme Activity, PDE4” value is listed as 85% with PDE4 (1 μM), 98% with PDE4 (10 μM) and 102% in the data set with PDE4 (30 μM). Further, the IC50 – broadly, the concentration at which inhibition is half-maximal – is under 1 µM at PDE4 (PDE4 from human U-937 promonocytic cells) and 13.6 µM at PDE3. Also, the “inhibition of LPS/IFN-gamma induced phosphorylation of p44/42” value in the data set on p44/42 MAP kinase (30 μM and 10 μM, LPS 10 ng/ml / IFN-gamma 10 U/ml 15 min) is listed as “dose-dependent manner”. In addition, in the data set with p44/42 MAP kinase (30 μM, LPS 10 ng/ml 15 min), the “inhibition of LPS-induced phosphorylation of p44/42 MAP kinase” value is given as “inhibited”.
`COC(=O)NCc1ccc(Oc2ccc(/C(=C\c3cc(OC)cc(OC)c3)C(=O)N(C)C)cc2)cc1` [Compound 29, (4-{4-[2-(3,5-dimethoxyphenyl)-1-dimethylcarbamoyl-vinyl]-phenoxy}-benzyl)-carbamic acid methyl ester]: in the data set with 3T3-L1 adipocytes [6], the activity at 0.1 µM is 106%, the activity at 1 µM was found to be 124% and the activity at 10 µM came out at 120%.
Regarding `COc1cc(/C=C(/C(=O)N(C)C)c2ccc(Oc3ccc(CCC(N)=O)cc3)cc2)cc(OC)c1` [Compound 31, 2-{4-[4-(2-Carbamoylethyl)-phenoxy]-phenyl}-3-(3,5-dimethoxyphenyl)-N,N-dimethylacrylamide], in the data set on 3T3-L1 adipocytes [6], the activity at 0.1 µM is 107%, the activity at 1 µM came out at 119% and the activity at 10 µM amounted to 161%. In the data set on TNF-alpha [7], the “inhibition of LPS-induced TNF-alpha production in mice” value was “significantly inhibited”. In addition, in the data set with DBA/1J mice (high dose 100 mg/kg oral twice daily for 14 days), the hind limb histology entry is “reduction in incidence and severity of pannus formation, inflammation cell infiltration and bone/cartilage damage”. In the data set on DBA/1J mice (high dose 100 mg/kg oral twice daily for 14 days, about same extent as dexamethasone), the “arthritis clinical score (severity) compared with vehicle controls” value was “prevented the increase in severity”. In the data set with DBA/1J mice (setting [9]), the hind limb histology result is “marked chronic inflammation of synovium with pannus formation and destruction of bone and cartilage”; the “arthritis clinical score (severity) compared with vehicle controls” value was “no apparent effect”.
For `COc1cc(/C=C(/C(=O)N(C)C)c2ccc(Oc3ccc(CCC(=O)N4CCOCC4)cc3)cc2)cc(OC)c1` [Compound 40, 3-(3,5-Dimethoxyphenyl)-N,N-dimethyl-2-{4-[4-(3-morpholin-4-yl-3-oxopropyl)-phenoxy]phenyl}-acrylamide], in the data set on 3T3-L1 adipocytes [6], the activity at 0.1 µM worked out at 126%, the activity at 1 µM is 117% and the activity at 10 µM was 126%.
For the molecule `COc1cc(/C=C(/C(=O)N2CCCCC2)c2ccc(Oc3ccc(CCC(=O)NC(N)=O)cc3)cc2)cc(OC)c1` [Compound 51, [3-(4-{4-[2-(3,5-dimethoxyphenyl)-1-(piperidine-1-carbonyl)-vinyl]-phenoxy}-phenyl)-propionyl]-urea], in the data set on 3T3-L1 adipocytes [6], the activity at 0.1 µM was 93%, the activity at 1 µM was 107% and the activity at 10 µM worked out at 136%. In data set [8], the Cell viability entry is on record as “* (Cell viability <70%)”.
Turning to `CC(=O)NC(=O)CCc1ccc(Oc2ccc(/C(=C\c3ccc(F)cc3)C(=O)N(C)C)cc2)cc1` [Compound 56, 2-{4-[4-(3-acetylamino-3-oxopropyl)-phenoxy]-phenyl}-3-(4-fluorophenyl)-N,N-dimethylacrylamide], in the data set on 3T3-L1 adipocytes [6], the activity at 0.1 µM amounted to 83%, the activity at 1 µM turned out to be 100% and the activity at 10 µM was found to be 126%.
The matching figures for `COc1cc(/C=C(/C(=O)Nc2ccncc2)c2ccc(Oc3ccc(CCC(=O)NC(N)=O)cc3)cc2)cc(OC)c1` [Compound 60, 3-(3,5-dimethoxyphenyl)-2-{4-[4-(3-oxo-3-ureidopropyl)-phenoxy]-phenyl}-N-pyridin-4-ylacrylamide]: 93%, 120% and 229%.
Taken in the same sequence, the figures for `COc1cc(/C=C(/C(=O)Nc2ccc(Cl)cc2)c2ccc(Oc3ccc(CCC(=O)NC(N)=O)cc3)cc2)cc(OC)c1` [Compound 61, N-(4-chlorophenyl)-3-(3,5-dimethoxyphenyl)-2-{4-[4-(3-oxo-3-ureidopropyl)-phenoxy]-phenyl}-acrylamide] were 93%, 120% and 229%.
For the molecule `COc1cc(/C=C(/C(=O)N(C)C)c2ccc(Oc3ccc(CCC(=O)NCC(=O)N4CCOCC4)cc3)cc2)cc(OC)c1` [Compound 63, 3-(3,5-Dimethoxyphenyl)-N,N-dimethyl-2-(4-{4-[2-(2-morpholin-4-yl-2-oxoethylcarbamoyl)-ethyl]-phenoxy}-phenyl)-acrylamide], in the data set on 3T3-L1 adipocytes [6], the activity at 0.1 µM came to 107%, the activity at 1 µM is 112% and the activity at 10 µM stood at 139%.
Regarding `COc1cc(/C=C(/C(=O)N(C)C)c2ccc(Oc3ccc(CCC(=O)N4CCN(C)CC4)cc3)cc2)cc(OC)c1` [Compound 64, 3-(3,5-dimethoxyphenyl)-N,N-dimethyl-2-(4-{4-[3-(4-methylpiperazin-1-yl)-3-oxopropyl]-phenoxy}-phenyl)-acrylamide], in the data set with 3T3-L1 adipocytes [6], the activity at 0.1 µM worked out at 108%, the activity at 1 µM came out at 113% and the activity at 10 µM was 127%.
Consider `CN(C)C(=O)/C(=C/c1cccnc1)c1ccc(Oc2ccc(CCC(N)=O)cc2)cc1` [Compound 77, 2-{4-[4-(2-carbamoyl-ethyl)-phenoxy]-phenyl}-N,N-dimethyl-3-pyridin-3-yl-acrylamide], for which, in the data set on TNF-alpha [7], the “inhibition of LPS-induced TNF-alpha production in mice” value is “significantly inhibited”.

The values above are taken from patent US7323496B2, “Compounds for treatment of inflammation, diabetes and related disorders” (Theracos, Inc., priority 1999, dated 2008).
